Test results reported in ChEMBL document CHEMBL1158000, “Geniculol, a new biologically active diterpene from the endophytic fungus geniculosporium sp.1” (1999).

Legend:
[Chlorella] fusca [1] = Antialgal activity against Chlorella fusca at 50 ug by agar diffusion test; type: functional; conditions: Scenedesmus fuscus; read-out: IZ
[Chlorella] fusca [2] = Reduction of photosynthetic activity in green alga Chlorella fusca assessed as production of oxygen per hour at 0.2 mg/mL; type: functional, Scenedesmus fuscus; set-up: scale not given: the % may be the effect or the level left

Compound | zone of inhibition at 50 µg/disc ([Chlorella] fusca [1]) | Activity ([Chlorella] fusca [2])
C[C@]12CCC(=O)O[C@H]1C1=C[C@H]3OC(=O)[C@@]4(C)CCC[C@@](C)([C@@H]34)[C@]1(O)[C@H]2O [GENICULOL] | 2 mm | 
C[C@H]1C/C=C/[C@H]2[C@@H]3O[C@]3(C)[C@@H](C)[C@H]3[C@H](Cc4ccccc4)NC(=O)[C@]32OC(=O)/C=C/[C@@H](O)CCC1 [CYTOCHALASIN F] | 1 mm | 94.1%
